Assay results published in US20040067889A1, “Stabilization of brain natriuretic peptide (BNP) in blood samples, methods and compositions related thereto” (priority 2002, published 2004).
Like-named read-outs stand apart in the source and are kept apart here.

How the values were obtained:
Assay type in all cases: biochemical
endogenous proteases [1] = assay: Stability of synthetic BNP-32 spiked into normal human plasma with protease inhibitors (chemiluminescent BNP immunoassay); conditions: for 1 week (RLU) / 2 weeks (RLU) / 4 weeks % Signal Recovered / 4 weeks (RLU) / 72 hrs (RLU) / 22 days (RLU) / Day 0 (RLU): IHPP + 10 ng/ml BNP, 4° C., AEBSF 200 μg/ml, antipain 100 μg/ml, benzamidine 14 mM, PPACK 50 μg/ml, or all four; for efficacy in stabilizing BNP (in words): Table 11, inhibitors at usual functional concentrations
endogenous proteases [2] = assay: Stability of spiked synthetic BNP in bovine fetal serum with inhibitors; conditions: BFS; for Recovery versus 1st run: 48 hours at 4° C.
Source text: (§1) To generate an analytical signal to quantify the BNP concentration in the sample, two monoclonal BNP-specific antibodies (Shionogi & Co., LTD, Osaka, Japan; EP542255A1/B1; JP 3297392) were used. The first antibody was labeled with acridinium ester (AE) and the second antibody was labeled with biotin. The two antibodies bind to BNP molecules present in the plasma samples to form a complex; the formed complex was captured by paramagnetic particles (PMP) coated with streptavidin. PMP was separated by magnetic field and washed to remove non-specifically bound material. BNP-AE complexes retained on the PMP were treated with alkaline solution to produce a chemiluminescent signal, which was proportional to the amount of BNP captured; the signal was measured in relative light units or “RLU”. The assay was carried out on an automated chemiluminescent system ADIVA:Centaur™ (Bayer Corporation, Tarrytown, N.Y.) using BNP detection reagents, such as have been described. (e.g., B. Bluestein et al., 2002, “Development of an automated test for BNP as an aid in the diagnosis and evaluation of CHF on the Bayer ADVIA Centaur ACS”, Clinical Chemistry, 48(S6):A85, Abstract C37).
(§2) Experiments were performed to assess BNP stabilization in animal serum and human serum versus human plasma. Tables 9 and 10 below illustrate the efficacy of PPACK and leupeptin as BNP stabilizers in three different media, namely, bovine fetal serum (Biocell Labs, Rancho Dominguez, Calif.), normal human serum (Biocell Labs), and normal human plasma (Intergen).

endogenous proteases [3] = assay: Stability of spiked synthetic BNP in normal human serum with inhibitors; conditions: HS; for Recovery versus 1st run: 48 hours at 4° C.
Source text: as §1, §2

[4] = HP, spiked synthetic BNP, leupeptin 0.5 μg/ml
[5] = HP, spiked synthetic BNP, leupeptin 5 μg/ml
[6] = HP, spiked synthetic BNP, leupeptin 50 μg/ml
[7] = IHP (EDTA) with synthetic BNP-32 added, each inhibitor 50 μg/ml
[8] = Plasma A, spiked synthetic BNP, inhibitor 0.62 μg/ml
[9] = Plasma A, spiked synthetic BNP, inhibitor 1.85 μg/ml
[10] = Plasma A, spiked synthetic BNP, inhibitor 5.56 μg/ml
[11] = Plasma A, spiked synthetic BNP, inhibitor 16.7 μg/ml
[12] = Plasma A, spiked synthetic BNP, inhibitor 50 μg/ml

## NCCc1ccc(S(=O)(=O)F)cc1 [AEBSF, 4-(2-aminoethyl)benzenesulfonylfluoride]
Endogenous proteases [1]
  % Recovery vs 1st run (Time 0): 85.2%
  BNP, 1st run (Time 0): 741.7 pg/mL
  BNP, 3 hours at 4° C.: 768.6 pg/mL
  BNP, 17 hours at 4° C.: 715.2 pg/mL
  BNP, 40 hours at 4° C.: 735.7 pg/mL
  BNP, 6 days at 4° C.: 631.9 pg/mL
  1 week (RLU): 2504809 RLU
  2 weeks (RLU): 4241 RLU
  4 weeks % Signal Recovered: 0.1%
  4 weeks (RLU): 2434 RLU
  72 hrs (RLU): 3249767 RLU
  22 days (RLU): 3812 RLU
  Day 0 (RLU): 4079471 RLU
  efficacy in stabilizing BNP (in words): intermediate efficacy

## Aprotinin
Endogenous proteases [1]
  % Recovery vs 1st run (Time 0): 21.1%
  BNP, 1st run (Time 0): 792.4 pg/mL
  BNP, 3 hours at 4° C.: 849.7 pg/mL
  BNP, 17 hours at 4° C.: 680.0 pg/mL
  BNP, 40 hours at 4° C.: 490.9 pg/mL
  BNP, 6 days at 4° C.: 167.4 pg/mL
  efficacy in stabilizing BNP (in words): low efficacy

## N=C(N)c1ccccc1 [benzamidine]
Endogenous proteases [1]
  % Recovery vs 1st run (Time 0): 82.6%
  BNP, 1st run (Time 0): 830.6 pg/mL
  BNP, 3 hours at 4° C.: 806.8 pg/mL
  BNP, 17 hours at 4° C.: 860.5 pg/mL
  BNP, 40 hours at 4° C.: 813.8 pg/mL
  BNP, 6 days at 4° C.: 686.3 pg/mL
  1 week (RLU): 2568730 RLU
  2 weeks (RLU): 238972 RLU
  4 weeks % Signal Recovered: 0.8%
  4 weeks (RLU): 30024 RLU
  72 hrs (RLU): 3342787 RLU
  22 days (RLU): 108308 RLU
  Day 0 (RLU): 3927159 RLU
  efficacy in stabilizing BNP (in words): intermediate efficacy

## NC(N)=NCCC[C@H](NC(=O)[C@@H]1CCCN1C(=O)[C@H](N)Cc1ccccc1)C(=O)CCl [PPRACK, D-Phe-Pro-Arg-chloromethylketone]
Endogenous proteases [1]
  % Recovery vs 1st run (Time 0): 100.5%
  BNP, 1st run (Time 0): 892.0 pg/mL
  BNP, 3 hours at 4° C.: 894.6 pg/mL
  BNP, 17 hours at 4° C.: 957.6 pg/mL
  BNP, 40 hours at 4° C.: 939.7 pg/mL
  BNP, 6 days at 4° C.: 896.2 pg/mL
  efficacy in stabilizing BNP (in words): act as efficiently as antipain, leupeptin and PPACK

## CC(=O)N[C@@H](CC(C)C)C(=O)N[C@@H](CC(C)C)C(=O)N[C@H](C=O)CCCNC(=N)N [leupeptin, acetyl-leu-leu-arginal]
Endogenous proteases [2]; leupeptin 0.5 μg/ml
  BNP, 3 hours at 4° C. before freezing: 639.6 pg/mL
  BNP, 24 hours at 4° C. before freezing: 537.2 pg/mL
  BNP, 48 hours at 4° C. before freezing: 424.9 pg/mL
  BNP, frozen w/o storage at 4° C.: 712.9 pg/mL
  Recovery versus 1st run: 59.6%
Endogenous proteases [2]; leupeptin 5 μg/ml
  BNP, 3 hours at 4° C. before freezing: 672.2 pg/mL
  BNP, 24 hours at 4° C. before freezing: 601.7 pg/mL
  BNP, 48 hours at 4° C. before freezing: 498.9 pg/mL
  BNP, frozen w/o storage at 4° C.: 845.0 pg/mL
  Recovery versus 1st run: 59.0%
Endogenous proteases [2]; leupeptin 50 μg/ml
  BNP, 3 hours at 4° C. before freezing: 751.1 pg/mL
  BNP, 24 hours at 4° C. before freezing: 707.0 pg/mL
  BNP, 48 hours at 4° C. before freezing: 614.5 pg/mL
  BNP, frozen w/o storage at 4° C.: 810.5 pg/mL
  Recovery versus 1st run: 75.8%
Endogenous proteases [3]; leupeptin 0.5 μg/ml
  BNP, 3 hours at 4° C. before freezing: 129.0 pg/mL
  BNP, 24 hours at 4° C. before freezing: 45.1 pg/mL
  BNP, 48 hours at 4° C. before freezing: 11.4 pg/mL
  BNP, frozen w/o storage at 4° C.: 227.7 pg/mL
  Recovery versus 1st run: 5.0%
Endogenous proteases [3]; leupeptin 5 μg/ml
  BNP, 3 hours at 4° C. before freezing: 203.0 pg/mL
  BNP, 24 hours at 4° C. before freezing: 135.6 pg/mL
  BNP, 48 hours at 4° C. before freezing: 74.3 pg/mL
  BNP, frozen w/o storage at 4° C.: 311.1 pg/mL
  Recovery versus 1st run: 23.9%
Endogenous proteases [3]; leupeptin 50 μg/ml
  BNP, 3 hours at 4° C. before freezing: 274.2 pg/mL
  BNP, 24 hours at 4° C. before freezing: 217.5 pg/mL
  BNP, 48 hours at 4° C. before freezing: 156.6 pg/mL
  BNP, frozen w/o storage at 4° C.: 297.9 pg/mL
  Recovery versus 1st run: 52.6%
Endogenous proteases [1]
  % Recovery vs 1st run (Time 0): 105.5%
  BNP, 1st run (Time 0): 792.0 pg/mL
  BNP, 3 hours at 4° C.: 896.9 pg/mL
  BNP, 17 hours at 4° C.: 864.4 pg/mL
  BNP, 40 hours at 4° C.: 873.7 pg/mL
  BNP, 6 days at 4° C.: 835.9 pg/mL
Endogenous proteases [1]; [4]
  BNP, 3 hours at 4° C. before freezing: 751.3 pg/mL
  BNP, 24 hours at 4° C. before freezing: 696.1 pg/mL
  BNP, 48 hours at 4° C. before freezing: 672.6 pg/mL
  BNP, frozen w/o storage at 4° C.: 765.2 pg/mL
Endogenous proteases [1]; HP, spiked synthetic BNP, leupeptin 0.5 μg/ml, 48 hours at 4° C.
  Recovery versus 1st run: 87.9%
Endogenous proteases [1]; [5]
  BNP, 3 hours at 4° C. before freezing: 828.3 pg/mL
  BNP, 24 hours at 4° C. before freezing: 807.5 pg/mL
  BNP, 48 hours at 4° C. before freezing: 784.4 pg/mL
  BNP, frozen w/o storage at 4° C.: 679.0 pg/mL
Endogenous proteases [1]; HP, spiked synthetic BNP, leupeptin 5 μg/ml, 48 hours at 4° C.
  Recovery versus 1st run: 115.5%
Endogenous proteases [1]; [6]
  BNP, 3 hours at 4° C. before freezing: 795.6 pg/mL
  BNP, 24 hours at 4° C. before freezing: 763.0 pg/mL
  BNP, 48 hours at 4° C. before freezing: 798.3 pg/mL
  BNP, frozen w/o storage at 4° C.: 867.2 pg/mL
Endogenous proteases [1]; HP, spiked synthetic BNP, leupeptin 50 μg/ml, 48 hours at 4° C.
  Recovery versus 1st run: 92.1%
Endogenous proteases [1]; [7]
  Amount of BNP Present After 24 hr/4° C.: 2503.78
  Amount of BNP Present After 90 hr/4° C.: 2133.75
  Amount of BNP Present Before Storage, Day 0: 2290.08
Endogenous proteases [1]; IHP with synthetic BNP-32 added, each inhibitor 50 μg/ml, 90 hr/4° C. vs Day 0
  BNP Amount % Change: −6.8%
Endogenous proteases [1]; [8]
  BNP, 1st run (Time 0): 847.4 pg/mL
  BNP, 3 hours at 4° C.: 863.3 pg/mL
  BNP, 17 hours at 4° C.: 776.1 pg/mL
  BNP, 40 hours at 4° C.: 721.6 pg/mL
  BNP, 6 days at 4° C.: 373.6 pg/mL
Endogenous proteases [1]; Plasma A, spiked synthetic BNP, inhibitor 0.62 μg/ml, 6 days at 4° C.
  Recovery versus 1st run: 44.1%
Endogenous proteases [1]; [9]
  BNP, 1st run (Time 0): 841.7 pg/mL
  BNP, 3 hours at 4° C.: 873.5 pg/mL
  BNP, 17 hours at 4° C.: 859.4 pg/mL
  BNP, 40 hours at 4° C.: 795.5 pg/mL
  BNP, 6 days at 4° C.: 604.7 pg/mL
Endogenous proteases [1]; Plasma A, spiked synthetic BNP, inhibitor 1.85 μg/ml, 6 days at 4° C.
  Recovery versus 1st run: 71.8%
Endogenous proteases [1]; [10]
  BNP, 1st run (Time 0): 879.3 pg/mL
  BNP, 3 hours at 4° C.: 900.4 pg/mL
  BNP, 17 hours at 4° C.: 847.2 pg/mL
  BNP, 40 hours at 4° C.: 808.0 pg/mL
  BNP, 6 days at 4° C.: 722.8 pg/mL
Endogenous proteases [1]; Plasma A, spiked synthetic BNP, inhibitor 5.56 μg/ml, 6 days at 4° C.
  Recovery versus 1st run: 82.2%
Endogenous proteases [1]; [11]
  BNP, 1st run (Time 0): 886.7 pg/mL
  BNP, 3 hours at 4° C.: 849.8 pg/mL
  BNP, 17 hours at 4° C.: 904.5 pg/mL
  BNP, 40 hours at 4° C.: 903.1 pg/mL
  BNP, 6 days at 4° C.: 808.2 pg/mL
Endogenous proteases [1]; Plasma A, spiked synthetic BNP, inhibitor 16.7 μg/ml, 6 days at 4° C.
  Recovery versus 1st run: 91.1%
Endogenous proteases [1]; [12]
  BNP, 1st run (Time 0): 792.0 pg/mL
  BNP, 3 hours at 4° C.: 896.9 pg/mL
  BNP, 17 hours at 4° C.: 864.4 pg/mL
  BNP, 40 hours at 4° C.: 873.7 pg/mL
  BNP, 6 days at 4° C.: 835.9 pg/mL
Endogenous proteases [1]; Plasma A, spiked synthetic BNP, inhibitor 50 μg/ml, 6 days at 4° C.
  Recovery versus 1st run: 105.5%
